Measurements from ChEMBL document CHEMBL5150054, “Pyrazole-containing pharmaceuticals: target, pharmacological activity, and their SAR studies” (RSC Med Chem, 2022).

What was measured:
[1] = target: cGMP-specific 3',5'-cyclic phosphodiesterase (Homo sapiens, UniProt O76074)
Description: Inhibition of PDE5 (unknown origin)

[2] = Dissociation constant, pKa of compound; assay type: physicochemical
Plasma kallikrein = Plasma kallikrein (Homo sapiens, UniProt P03952); test: Inhibition of plasma kallikrein (unknown origin)
[3] = Inhibition of GABA receptor BZ domain (unknown origin); design: species or system Homo sapiens

Plasma kallikrein, sequence (P03952 20-390 limits assumed): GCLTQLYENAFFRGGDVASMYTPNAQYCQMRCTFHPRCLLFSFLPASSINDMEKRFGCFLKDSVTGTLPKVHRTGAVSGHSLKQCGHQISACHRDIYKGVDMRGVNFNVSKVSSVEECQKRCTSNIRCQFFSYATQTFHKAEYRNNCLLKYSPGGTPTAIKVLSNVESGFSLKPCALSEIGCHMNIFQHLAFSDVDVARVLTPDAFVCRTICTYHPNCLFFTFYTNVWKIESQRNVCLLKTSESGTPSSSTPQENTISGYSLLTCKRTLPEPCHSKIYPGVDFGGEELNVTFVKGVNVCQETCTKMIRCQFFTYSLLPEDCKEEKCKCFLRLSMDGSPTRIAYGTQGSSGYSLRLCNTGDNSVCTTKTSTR
Plasma kallikrein, sequence (P03952 391-638 limits assumed): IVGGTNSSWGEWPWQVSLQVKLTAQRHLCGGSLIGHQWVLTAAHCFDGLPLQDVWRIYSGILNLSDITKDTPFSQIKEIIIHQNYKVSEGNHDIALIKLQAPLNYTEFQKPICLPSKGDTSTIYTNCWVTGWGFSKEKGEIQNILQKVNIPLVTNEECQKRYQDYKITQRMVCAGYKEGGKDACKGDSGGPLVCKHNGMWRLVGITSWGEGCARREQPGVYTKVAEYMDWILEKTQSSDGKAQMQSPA

## CCCOc1ccc(S(=O)(=O)NCCC2CCCN2C)cc1-c1nc2c(CCC)nn(C)c2c(=O)[nH]1 (stereo not given)
[1]
  IC50: 8.25 nM

## CCCCc1nc(-c2ccccc2Cl)c(C(=O)O)n1Cc1ccc(-c2ccccc2-c2nn[nH]n2)cc1
[2]
  pKa: 2.5

## CCCCc1nn(-c2ccccc2Cl)c(C(=O)O)c1Cc1ccc(-c2ccccc2-c2nn[nH]n2)cc1
[2]
  pKa: 7.1

## N#Cc1cccc([C@@H](NCC2CC2)c2ccc(F)c(NC(=O)c3cc(C(F)(F)F)nn3-c3cccc(CN)c3)c2)c1 [BEROTRALSTAT]
Plasma kallikrein
  IC50: 1 nM

## CCN(C(C)=O)c1cccc(-c2ccnc3c(C#N)cnn23)c1 [ZALEPLON]
[3]
  IC50: 167 nM
